Measured values reported in patent publication US8791102B2, “Acetanilide sphingosine-1-phosphate receptor antagonists” (Exelixis, Inc., priority 2008, dated 2014).

Each compound was assayed against T1, human S1P1 receptors (Homo sapiens, UniProt P21453) (assay: S1P1R antagonist assay (fluorescent membrane potential dye, cAMP readout)). Details: HEK293 cells expressing human S1P1 receptors and CNG channel; 500 nM NECA; S1P1R agonist 10 nM; 90 minutes; read-out: EC50 or IC50 value.
T1 construct: host or cells: HEK293
Format: cell-based

T1 sequence (P21453 whole entry): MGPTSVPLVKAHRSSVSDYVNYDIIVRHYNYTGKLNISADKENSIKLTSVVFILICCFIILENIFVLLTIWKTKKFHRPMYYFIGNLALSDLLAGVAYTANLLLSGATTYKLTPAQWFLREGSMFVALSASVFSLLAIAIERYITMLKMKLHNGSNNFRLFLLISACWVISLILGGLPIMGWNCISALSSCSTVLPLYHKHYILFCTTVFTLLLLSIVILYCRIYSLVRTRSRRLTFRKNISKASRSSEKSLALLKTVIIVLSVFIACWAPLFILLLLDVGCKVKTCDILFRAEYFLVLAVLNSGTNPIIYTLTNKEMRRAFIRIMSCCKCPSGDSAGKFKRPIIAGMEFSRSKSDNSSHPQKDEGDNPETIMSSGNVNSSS

SMILES | IC50
O=C(Nc1ccc(Oc2ccc(F)cc2)cc1)[C@@H]1C[C@@H](Cc2ccc(F)cc2)C(=O)N1C(=O)Cn1cncn1 [Compound 71, (2S,4R)-1-(2-(1H-1,2,4-triazol-1-yl)acetyl)-4-(4-fluorobenzyl)-N-(4-(4-fluorophenoxy)phenyl)-5-oxopyrrolidine-2-carboxamide] | ≤ 300 nM
Cc1cc(Oc2ccc(NC(=O)[C@@H]3C[C@@H](Cc4ccc(F)cc4)CN3C(=O)Cn3cncn3)cc2)ccc1F [Compound 73, (2S,4R)-1-(2-(1H-1,2,4-triazol-1-yl)acetyl)-N-(4-(4-fluoro-3-methylphenoxy)phenyl)-4-(4-fluorobenzyl)pyrrolidine-2-carboxamide] | ≤ 300 nM
O=C(Nc1ccc(Oc2ccc(F)cc2)cc1)[C@@H]1C[C@@H](Cc2ccc(F)cc2)CN1C(=O)Cn1ccnn1 [Compound 75, (2S,4R)-1-(2-(1H-1,2,3-triazol-1-yl)acetyl)-4-(4-fluorobenzyl)-N-(4-(4-fluorophenoxy)phenyl)pyrrolidine-2-carboxamide] | ≤ 300 nM
O=C(Nc1ccc(Oc2ccc(F)cc2)cc1)[C@@H]1C[C@@H](c2ccccc2)CN1C(=O)Cn1cncn1 [Compound 78, (2S,4S)-1-(2-(1H-1,2,4-triazol-1-yl)acetyl)-N-(4-(4-fluorophenoxy)phenyl)-4-phenylpyrrolidine-2-carboxamide] | 300 to 1000 nM
O=C(Nc1ccc(Oc2ccc(Cl)cc2)cc1)[C@@H]1C[C@@H](Cc2ccccc2)CN1C(=O)Cn1cncn1 [Compound 79, (2S,4R)-1-(2-(1H-1,2,4-triazol-1-yl)acetyl)-4-benzyl-N-(4-(4-chlorophenoxy)phenyl)pyrrolidine-2-carboxamide] | ≤ 300 nM
O=C(Nc1ccc(Oc2ccc(F)cc2)cc1)[C@@H]1C[C@@H](Cc2ccccc2)CN1C(=O)CN1CCc2ccccc2C1 [Compound 82, (2S,4R)-4-benzyl-1-(2-(3,4-dihydroisoquinolin-2(1H)-yl)acetyl)-N-(4-(4-fluorophenoxy)phenyl)pyrrolidine-2-carboxamide] | ≤ 300 nM
O=C(Nc1ccc(Oc2ccc(F)cc2)cc1)[C@@H]1C[C@@H](Cc2ccccc2)CN1C(=O)CN1CCSCC1 [Compound 83, (2S,4R)-4-benzyl-N-(4-(4-fluorophenoxy)phenyl)-1-(2-thiomorpholinoacetyl)pyrrolidine-2-carboxamide] | ≤ 300 nM
CSCCC(=O)N1C[C@H](Cc2ccccc2)C[C@H]1C(=O)Nc1ccc(Oc2ccc(F)cc2)cc1 [Compound 85, (2S,4R)-4-benzyl-N-(4-(4-fluorophenoxy)phenyl)-1-(3-(methylthio)propanoyl)pyrrolidine-2-carboxamide] | ≤ 300 nM
CCOCCC(=O)N1C[C@H](Cc2ccccc2)C[C@H]1C(=O)Nc1ccc(Oc2ccc(F)cc2)cc1 [Compound 86, (2S,4R)-4-benzyl-1-(3-ethoxypropanoyl)-N-(4-(4-fluorophenoxy)phenyl)pyrrolidine-2-carboxamide] | ≤ 300 nM
COCCOCC(=O)N1C[C@H](Cc2ccccc2)C[C@H]1C(=O)Nc1ccc(Oc2ccc(F)cc2)cc1 [Compound 88, (2S,4R)-4-benzyl-N-(4-(4-fluorophenoxy)phenyl)-1-(2-(2-methoxyethoxy)acetyl)pyrrolidine-2-carboxamide] | ≤ 300 nM
O=C(CCC(=O)N1C[C@H](Cc2ccccc2)C[C@H]1C(=O)Nc1ccc(Oc2ccc(F)cc2)cc1)c1cccs1 [Compound 91, (2S,4R)-4-benzyl-N-(4-(4-fluorophenoxy)phenyl)-1-(4-oxo-4-(thien-2-yl)butanoyl)pyrrolidine-2-carboxamide] | ≤ 300 nM
O=C(Nc1ccc(Oc2ccc(F)cc2)cc1)[C@@H]1C[C@@H](Cc2ccccc2)CN1C(=O)C1CCCO1 (stereo partly drawn) [Compound 92, (2S,4R)-4-benzyl-N-(4-(4-fluorophenoxy)phenyl)-1-(tetrahydrofuran-2-carbonyl)pyrrolidine-2-carboxamide] | ≤ 300 nM
O=C(Nc1ccc(Oc2ccc(F)cc2)cc1)[C@@H]1C[C@@H](Cc2ccccc2)CN1C(=O)CSc1ccncc1 [Compound 96, (2S,4R)-4-benzyl-N-(4-(4-fluorophenoxy)phenyl)-1-(2-(pyridin-4-ylthio)acetyl)pyrrolidine-2-carboxamide] | ≤ 300 nM
O=C(Nc1ccc(Oc2ccc(F)cc2)cc1)[C@@H]1C[C@@H](Cc2ccccc2)CN1C(=O)Cc1c[nH]c2ccccc12 [Compound 98, (2S,4R)-1-(2-(1H-indol-3-yl)acetyl)-4-benzyl-N-(4-(4-fluorophenoxy)phenyl)pyrrolidine-2-carboxamide] | ≤ 300 nM

Further lines, results first:

IC50 | SMILES
≤ 300 nM | COc1cccc(C[C@@H]2C[C@@H](C(=O)Nc3ccc(Oc4ccc(F)cc4)cc3)N(C(=O)Cn3ccnn3)C2)c1 [Compound 68, (2S,4R)-1-(2-(1H-1,2,3-triazol-1-yl)acetyl)-N-(4-(4-fluorophenoxy)phenyl)-4-(3-methoxybenzyl)pyrrolidine-2-carboxamide]
≤ 300 nM | COc1cccc(C[C@@H]2C[C@@H](C(=O)Nc3ccc(Oc4ccc(F)cc4)cc3)N(C(=O)Cn3nccn3)C2)c1 [Compound 69, (2S,4R)-1-(2-(2H-1,2,3-triazol-2-yl)acetyl)-N-(4-(4-fluorophenoxy)phenyl)-4-(3-methoxybenzyl)pyrrolidine-2-carboxamide]
≤ 300 nM | COc1cccc(C[C@@H]2C[C@@H](C(=O)Nc3ccc(Oc4ccc(F)cc4)cc3)N(C(=O)Cn3cncn3)C2)c1 [Compound 70, (2S,4R)-1-(2-(1H-1,2,4-triazol-1-yl)acetyl)-N-(4-(4-fluorophenoxy)phenyl)-4-(3-methoxybenzyl)pyrrolidine-2-carboxamide]
≤ 300 nM | O=C(Nc1ccc(Oc2ccc(F)cc2)cc1)[C@@H]1C[C@@H](Cc2ccsc2)CN1C(=O)Cn1cncn1 [Compound 72, (2S,4R)-1-(2-(1H-1,2,4-triazol-1-yl)acetyl)-N-(4-(4-fluorophenoxy)phenyl)-4-(thiophen-3-ylmethyl)pyrrolidine-2-carboxamide]
≤ 300 nM | Cc1cc(F)ccc1Oc1ccc(NC(=O)[C@@H]2C[C@@H](Cc3ccc(F)cc3)CN2C(=O)Cn2cncn2)cc1 [Compound 74, (2S,4R)-1-(2-(1H-1,2,4-triazol-1-yl)acetyl)-N-(4-(4-fluoro-2-methylphenoxy)phenyl)-4-(4-fluorobenzyl)pyrrolidine-2-carboxamide]
≤ 300 nM | O=C(Nc1ccc(Oc2ccc(F)cc2)cc1)[C@@H]1C[C@H](Cc2ccc(F)cc2)CN1C(=O)Cn1cncn1 [Compound 76, (2S,4S)-1-(2-(1H-1,2,4-triazol-1-yl)acetyl)-4-(4-fluorobenzyl)-N-(4-(4-fluorophenoxy)phenyl)pyrrolidine-2-carboxamide]
300 to 1000 nM | O=C(Nc1ccc(Oc2ccc(F)cc2)cc1)[C@@H]1C[C@@H](c2ccccc2)CN1C(=O)Cn1nccn1 [Compound 77, (2S,4S)-1-(2-(2H-1,2,3-triazol-2-yl)acetyl)-N-(4-(4-fluorophenoxy)phenyl)-4-phenylpyrrolidine-2-carboxamide]
300 to 1000 nM | O=C(Nc1ccc(Oc2ccc(F)cc2)cc1)[C@@H]1C[C@H](NCc2ccccc2)CN1C(=O)Cn1cncn1 [Compound 80, (2S,4S)-1-(2-(1H-1,2,4-triazol-1-yl)acetyl)-4-(benzylamino)-N-(4-(4-fluorophenoxy)phenyl)pyrrolidine-2-carboxamide]
> 1000 nM | COc1ccc(CCC(=O)N[C@@H](COCc2ccccc2)C(=O)Nc2ccc(Oc3ccc(F)cc3)cc2)cc1Cl [Compound 81, (S)-3-(benzyloxy)-2-(3-(3-chloro-4-methoxyphenyl)propanamido)-N-(4-(4-fluorophenoxy)phenyl)propanamide]
≤ 300 nM | O=C(Nc1ccc(Oc2ccc(F)cc2)cc1)[C@@H]1C[C@@H](Cc2ccccc2)CN1C(=O)Cc1c(F)ccc(F)c1F [Compound 84, (2S,4R)-4-benzyl-N-(4-(4-fluorophenoxy)phenyl)-1-(2-(2,3,6-trifluorophenyl)acetyl)pyrrolidine-2-carboxamide]
≤ 300 nM | CS(=O)(=O)CC(=O)N1C[C@H](Cc2ccccc2)C[C@H]1C(=O)Nc1ccc(Oc2ccc(F)cc2)cc1 [Compound 87, (2S,4R)-4-benzyl-N-(4-(4-fluorophenoxy)phenyl)-1-(2-(methylsulfonyl)acetyl)pyrrolidine-2-carboxamide]
≤ 300 nM | CN(C)C(=O)CCC(=O)N1C[C@H](Cc2ccccc2)C[C@H]1C(=O)Nc1ccc(Oc2ccc(F)cc2)cc1 [Compound 89, (2S,4R)-4-benzyl-1-(4-(dimethylamino)-4-oxobutanoyl)-N-(4-(4-fluorophenoxy)phenyl)pyrrolidine-2-carboxamide]
≤ 300 nM | COCCC(=O)N1C[C@H](Cc2ccccc2)C[C@H]1C(=O)Nc1ccc(Oc2ccc(F)cc2)cc1 [Compound 90, (2S,4R)-4-benzyl-N-(4-(4-fluorophenoxy)phenyl)-1-(3-methoxypropanoyl)pyrrolidine-2-carboxamide]
≤ 300 nM | CC(=O)N1CCC[C@H]1C(=O)N1C[C@H](Cc2ccccc2)C[C@H]1C(=O)Nc1ccc(Oc2ccc(F)cc2)cc1 [Compound 93, (2S,4R)-1-((S)-1-acetylpyrrolidine-2-carbonyl)-4-benzyl-N-(4-(4-fluorophenoxy)phenyl)pyrrolidine-2-carboxamide]
≤ 300 nM | O=C(Nc1ccc(Oc2ccc(F)cc2)cc1)[C@@H]1C[C@@H](Cc2ccccc2)CN1C(=O)CSc1ncccn1 [Compound 94, (2S,4R)-4-benzyl-N-(4-(4-fluorophenoxy)phenyl)-1-(2-(pyrimidin-2-ylthio)acetyl)pyrrolidine-2-carboxamide]
≤ 300 nM | O=C(Nc1ccc(Oc2ccc(F)cc2)cc1)[C@@H]1C[C@@H](Cc2ccccc2)CN1C(=O)Cc1c(F)cccc1F [Compound 95, (2S,4R)-4-benzyl-1-(2-(2,6-difluorophenyl)acetyl)-N-(4-(4-fluorophenoxy)phenyl)pyrrolidine-2-carboxamide]
≤ 300 nM | O=C(Nc1ccc(Oc2ccc(F)cc2)cc1)[C@@H]1C[C@@H](Cc2ccccc2)CN1C(=O)CN1C(=O)c2ccccc2C1=O [Compound 97]
≤ 300 nM | O=C(Nc1ccc(Oc2ccc(F)cc2)cc1)[C@@H]1C[C@@H](Cc2ccccc2)CN1C(=O)CN1C(=O)CSC1=S [Compound 99, (2S,4R)-4-benzyl-N-(4-(4-fluorophenoxy)phenyl)-1-(2-(4-oxo-2-thioxothiazolidin-3-yl)acetyl)pyrrolidine-2-carboxamide]
